Columns and labels:
Type in all cases: in vivo
[1] = tested on: Amaranthus retroflexus; experiment: Post-emergence herbicidal action against AMARE
In short: (§1)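 WP- or EC-formulated compounds, with 0.5% additive, applied as a 600 l/ha spray onto green parts of one-leaf-stage plants grown 2–3 weeks in sandy loam. After roughly 3 weeks in the greenhouse, visual % activity scored versus untreated plants, 100% meaning death.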

[2] = tested on: Matricaria inodora; experiment: Post-emergence herbicidal action against MATIN
In short: as §1

[3] = tested on: Setaria viridis; experiment: Post-emergence herbicidal action against SETVI; conditions: visual rating about 3 weeks after treatment
In short: as §1

[4] = tested on: Polygonum convolvulus; experiment: Post-emergence herbicidal action against POLCO
In short: as §1

[5] = tested on: Alopecurus myosuroides; experiment: Post-emergence herbicidal action against ALOMY; conditions: visual rating about 3 weeks after treatment
In short: as §1

[6] = tested on: Stellaria media; experiment: Post-emergence herbicidal action against STEME
In short: as §1

[7] = tested on: Viola tricolor; experiment: Post-emergence herbicidal action against VIOTR
In short: as §1

[8] = tested on: Echinochloa crus-galli; experiment: Post-emergence herbicidal action against ECHCG; conditions: visual rating about 3 weeks after treatment
In short: as §1

[9] = tested on: Pharbitis purpurea; experiment: Post-emergence herbicidal action against PHBPU
In short: as §1

[10] = tested on: Abutilon theophrasti; experiment: Post-emergence herbicidal action against ABUTH; conditions: visual rating about 3 weeks after treatment
In short: as §1

[11] = tested on: Lolium rigidum; experiment: Post-emergence herbicidal action against LOLRI; conditions: visual rating about 3 weeks after treatment
In short: as §1

[12] = tested on: DIGSA; experiment: Post-emergence herbicidal action against DIGSA; conditions: visual rating about 3 weeks after treatment
In short: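 Greenhouse-grown plants sprayed at one-leaf stage (2–3 weeks after sowing) with WP or EC formulations as aqueous suspension/emulsion plus 0.5% additive, 600 l/ha water. Activity rated visually about 3 weeks later versus untreated controls, 100% = plants dead, 0% = like controls.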

[13] = tested on: Veronica persica; experiment: Post-emergence herbicidal action against VERPE
In short: as §1

[14] = tested on: Avena fatua; experiment: Post-emergence herbicidal action against AVEFA; conditions: visual rating about 3 weeks after treatment
In short: as §1

[15] = tested on: Hordeum murinum; experiment: Post-emergence herbicidal action against HORMU
In short: as §1

[16] = 80 g a.i./ha, visual rating about 3 weeks after treatment

Row | Structure (SMILES) | Herbicidal action against [%] AMARE ([1]; 20 g a.i./ha) [%] | Herbicidal action against [%] AMARE [1, 16] [%] | Herbicidal action against [%] MATIN [2, 16] [%] | Herbicidal action against [%] SETVI ([3]; 20 g a.i./ha) [%] | Herbicidal action against [%] SETVI ([3]; 80 g a.i./ha) [%] | Herbicidal action against [%] POLCO ([4]; 20 g a.i./ha) [%] | Herbicidal action against [%] POLCO ([4]; 80 g a.i./ha) [%] | Herbicidal action against [%] ALOMY ([5]; 20 g a.i./ha) [%] | Herbicidal action against [%] ALOMY ([5]; 80 g a.i./ha) [%] | Herbicidal action against [%] STEME ([6]; 80 g a.i./ha) [%] | Herbicidal action against [%] ECHCG ([8]; 20 g a.i./ha) [%] | Herbicidal action against [%] ECHCG ([8]; 80 g a.i./ha) [%] | Herbicidal action against [%] PHBPU ([9]; 80 g a.i./ha) [%] | Herbicidal action against [%] ABUTH ([10]; 80 g a.i./ha) [%] | Herbicidal action against [%] LOLRI ([11]; 20 g a.i./ha) [%] | Herbicidal action against [%] LOLRI ([11]; 80 g a.i./ha) [%] | Herbicidal action against [%] DIGSA ([12]; 20 g a.i./ha) [%] | Herbicidal action against [%] DIGSA ([12]; 80 g a.i./ha) [%] | Herbicidal action against [%] VERPE ([13]; 20 g a.i./ha) [%] | Herbicidal action against [%] VERPE ([13]; 80 g a.i./ha) [%] | further results
1 | CSCCOC(=O)C1C=CC(NC(=O)C2(C(F)(F)F)CC(c3cc(F)cc(C#N)c3)=NO2)C1 (mixture of isomers) [Example I-38] | 80 | 80 | 80 | 90 | 90 | 90 | 90 | 80 | 90 | 100 | 90 | 90 | 90 | 90 | 90 | 90 | 90 | 90 | 90 | 90 | Herbicidal action against [%] STEME ([6]; 20 g a.i./ha): 100%; Herbicidal action against [%] VIOTR ([7]; 20 g a.i./ha): 100%; Herbicidal action against [%] VIOTR ([7]; 80 g a.i./ha): 80%; Herbicidal action against [%] ABUTH ([10]; 20 g a.i./ha): 90%; Herbicidal action against [%] AVEFA ([14]; 20 g a.i./ha): 90%; Herbicidal action against [%] AVEFA ([14]; 80 g a.i./ha): 90%; Herbicidal action against [%] HORMU ([15]; 20 g a.i./ha): 80%; Herbicidal action against [%] HORMU ([15]; 80 g a.i./ha): 80%
2 | CSCCOC(=O)C1C=CC(NC(=O)C2(C(F)(F)F)CC(c3cccc(C#N)c3)=NO2)C1 (mixture of isomers) [Example I-44] | 80 | 80 | 80 | 80 | 90 | 80 | 90 | 90 | 90 | 90 | 80 | 80 | 80 | 80 | 90 | 90 | 90 | 90 | 90 | 90 | Herbicidal action against [%] VIOTR ([7]; 80 g a.i./ha): 90%; Herbicidal action against [%] AVEFA ([14]; 20 g a.i./ha): 80%; Herbicidal action against [%] AVEFA ([14]; 80 g a.i./ha): 90%; Herbicidal action against [%] HORMU ([15]; 20 g a.i./ha): 80%; Herbicidal action against [%] HORMU ([15]; 80 g a.i./ha): 80%
3 | CSCCOC(=O)C1C=CC(NC(=O)C2(C)CC(c3cc(F)cc(F)c3)=NO2)C1 (stereo not drawn) [Example I-06] | 80 | 80 | 80 | 80 | 90 | 90 | 90 | 100 | 100 | 90 | 90 | 90 | 80 | 80 | 100 | 100 | 90 | 90 | 80 | 90 | Herbicidal action against [%] STEME ([6]; 20 g a.i./ha): 90%; Herbicidal action against [%] VIOTR ([7]; 20 g a.i./ha): 90%; Herbicidal action against [%] PHBPU ([9]; 20 g a.i./ha): 80%; Herbicidal action against [%] ABUTH ([10]; 20 g a.i./ha): 80%; Herbicidal action against [%] AVEFA ([14]; 20 g a.i./ha): 100%; Herbicidal action against [%] AVEFA ([14]; 80 g a.i./ha): 100%; Herbicidal action against [%] HORMU ([15]; 20 g a.i./ha): 90%; Herbicidal action against [%] HORMU ([15]; 80 g a.i./ha): 90%
4 | CSCCOC(=O)C1C=CC(NC(=O)C2(C(F)(F)F)CC(c3cc(F)cc(F)c3)=NO2)C1 (stereo not drawn) [Example I-17] | 80 | 80 | 80 | 80 | 80 | 80 | 80 | 90 | 90 | 90 | 80 | 90 | 80 | 80 | 100 | 100 | 90 | 90 | 80 | 80 | Herbicidal action against [%] MATIN ([2]; 20 g a.i./ha): 80%; Herbicidal action against [%] STEME ([6]; 20 g a.i./ha): 80%; Herbicidal action against [%] VIOTR ([7]; 20 g a.i./ha): 80%; Herbicidal action against [%] VIOTR ([7]; 80 g a.i./ha): 80%; Herbicidal action against [%] PHBPU ([9]; 20 g a.i./ha): 80%; Herbicidal action against [%] ABUTH ([10]; 20 g a.i./ha): 80%; Herbicidal action against [%] AVEFA ([14]; 20 g a.i./ha): 100%; Herbicidal action against [%] AVEFA ([14]; 80 g a.i./ha): 100%; Herbicidal action against [%] HORMU ([15]; 20 g a.i./ha): 90%; Herbicidal action against [%] HORMU ([15]; 80 g a.i./ha): 90%
5 | C=CC1(C(=O)NC2C=CC(C(=O)OCCSC)C2)CC(c2cc(F)cc(F)c2)=NO1 (stereo not drawn) [Example I-18] | 90 | 90 | 90 | 80 | 80 | 90 | 90 | 100 | 100 | 90 | 90 | 90 | 80 | 90 | 90 | 90 | 90 | 90 | 90 | 90 | Herbicidal action against [%] MATIN ([2]; 20 g a.i./ha): 90%; Herbicidal action against [%] STEME ([6]; 20 g a.i./ha): 90%; Herbicidal action against [%] VIOTR ([7]; 20 g a.i./ha): 90%; Herbicidal action against [%] VIOTR ([7]; 80 g a.i./ha): 80%; Herbicidal action against [%] PHBPU ([9]; 20 g a.i./ha): 80%; Herbicidal action against [%] ABUTH ([10]; 20 g a.i./ha): 90%; Herbicidal action against [%] AVEFA ([14]; 20 g a.i./ha): 90%; Herbicidal action against [%] AVEFA ([14]; 80 g a.i./ha): 100%; Herbicidal action against [%] HORMU ([15]; 20 g a.i./ha): 100%; Herbicidal action against [%] HORMU ([15]; 80 g a.i./ha): 100%

Reference: patent US12185723B2, “Herbicidally active 3-phenylisoxazoline-5-carboxamides of s-containing cyclopentenylcarboxylic esters” (Bayer Aktiengesellschaft, priority 2019, dated 2025)
